These compounds were tested on HIV-1 NL4-3 viral clone expressing Renilla luciferase (assay: microbe, parasite or virus in culture). Settings: Human immunodeficiency virus 1, NL43, MT2, 96 h.
Type: cell-based
Description: Protocol for MT-2 Spread Assay
The present assay was used to screen candidate antiviral compounds by quantification of virus spread and production over several rounds of infection in vitro. MT-2, a HIV-1 permissive human T-cell line, was seeded in microtiter plates and was simultaneously treated with serially diluted compound and inoculated with a HIV-1 NL4-3 viral clone engineered to express Renilla luciferase in place of Net Following treatment, the culture was incubated for 96 hours. After the incubation, media was collected and used to estimate relative infectivity on the indicator cell line, TZM-bl. Additionally, viral spread was quantified by measuring luciferase activity via a commercially available luciferase substrate. In parallel, MT-2 cells were seeded and inoculated with mock virus in the presence of serially diluted compound. Compound toxicity was quantified 96 hours after treatment with AlamarBlue.
MT-2 (NIH Aids reagent program 237) cells were grown and maintained in an incubator at 37° C. with 5% CO2 using a basal medium of RPMI-1640 supplemented with 10% FBS. Cells were seeded in 100 μl at 2×10^4 cells/well in white walled 96-well microtiter plates. Candidate compounds were 3-fold serially diluted in the appropriate solvent. Solvent without compound was used as a no drug reference. Cells were inoculated at a multiplicity of 0.027 with an HIV-1 NL4-3 virus stock engineered to express Renilla luciferase in place of Net Diluted virus stock was first added to serially diluted compound. Compound and virus were delivered to cells in an equal volume (100 μl) and treated cultures were returned to the incubator for 96 hours. In parallel, plates for cytotoxicity estimates were prepared in the same way except cells were plated in clear walled 96-well microtiter plates and were mock infected.
At 96 hours post infection, 100 μl virus containing culture supernatant was collected from the treated and infected cultures and serially diluted in DMEM supplemented with 10% FBS, 1% sodium pyruvate, and 20 μg/ml DEAE dextran. One day prior, TZM-bl (ATCC PTA-5659) were cultured in basal medium of DMEM supplemented with 10% FBS and 1% sodium pyruvate and seeded at 7.5×10^3 cells/well in black walled 96-well microtiter plates. Diluted virus containing culture supernatant was transferred to TZM-bl cultures and incubated for 48 hours at 37° C. with 5% CO2. Infected TZM-bl cultures were fixed for 5 minutes with a 1% formaldehyde/0.2% gluteraldehyde/PBS solution then washed three times with PBS. Fixed cultures were incubated at 37° C. for 25 minutes with a 200 μg/ml MUG (4-Methylumbelliferyl β-D-[…])/DMEM solution. The reaction was stopped with an equal volume of 1M sodium carbonate and read at 360, 449 nm on fluorescence plate reader (Biotek).
At 96 hours post infection, 100 μl of culture supernatant was removed from the treated and infected cultures and EnduRen live cell substrate (Promega) was added at a final concentration 1.3 μg/ml. Cells were incubated for 1.5 hours at 37° C. with 5% CO2 then read on a luminescence plate reader (Biotek).
For all assays, data was imported into Accelrys Assay Explorer 3.3. In Assay Explorer, % inhibition (antiviral or cytotoxicity) was calculated using the solvent control as a reference by the following equation: 1−(SignalCompound/SignalReference). The % Inhibition and compound concentration data was fitted using the following 4-parameter logistic model (Assay Explorer model 42):
[formula] where X is compound concentration, Y is % inhibition, D is the maximum % Inhibition (constrained to 100%), C is IC50 value or inflection point, B is the hill slope, and A is the minimum % inhibition (constrained to 0%). The IC50 value is reported as the EC50 or CC50 depending on the assay endpoint. EC50 represents the effective concentration at which virus replication is inhibited by 50 percent. CC50 represents the concentration that results in the death of 50 percent of the host cells. […]

SMILES | EC50
COc1cc2c(cc1OCc1ccccc1)CCNC2c1cc(OCc2ccccc2)c(OC)cc1C (stereo not drawn) [AY, 6-(Benzyloxy)-1-(5-(benzyloxy)-4-methoxy-2-methylphenyl)-7-methoxy-1,2,3,4-tetrahydroisoquinoline] | 4880 nM
COC(=O)N1CCc2cc(OCc3ccccc3)c(OC)cc2C1/C=C/c1ccc(OC)c(OCc2ccccc2)c1 (stereo not drawn) [Example L, Methyl 6-benzyloxy-1-[(E)-2-(3-benzyloxy-4-methoxy-phenyl)vinyl]-7-methoxy-3,4-dihydro-1H-isoquinoline-2-carboxylate] | 2810 nM
COc1cc2c(cc1OCc1ccccc1)CCNC2/C=C/c1ccc2c(c1)OCC2 (stereo not drawn) [EG, 6-Benzyloxy-1-[(E)-2-(2,3-dihydrobenzofuran-6-yl)vinyl]-7-methoxy-1,2,3,4-tetrahydroisoquinoline] | 900 nM
COc1cc2c(cc1OCc1ccccc1)CCNC2/C=C/c1sccc1C (stereo not drawn) [BS, 6-Benzyloxy-7-methoxy-1-[(E)-2-(3-methyl-2-thienyl)vinyl]-1,2,3,4-tetrahydroisoquinoline] | 2870 nM
COc1cc2c(cc1OCc1ccccc1)CCNC2/C=C/c1ccc(-c2cccnc2)cc1 (stereo not drawn) [DJ] | 393 nM
COc1cc2c(cc1OCc1ccccc1)CCNC2/C=C/c1ccccc1C (stereo not drawn) [Example W, 6-benzyloxy-7-methoxy-1-[(E)-2-(o-tolyl)vinyl]-1,2,3,4-tetrahydroisoquinoline] | 690 nM
COc1cc2c(cc1OCc1ccccc1)CCNC2/C=C/c1cc(OCc2ccccc2)ccc1C (stereo not drawn) [Example AD, 6-benzyloxy-1-[(E)-2-(5-benzyloxy-2-methyl-phenyl)vinyl]-7-methoxy-1,2,3,4-tetrahydroisoquinoline] | 84 nM
COc1cc2c(cc1OCc1ccccc1)CCNC2/C=C/c1cc2c(cc1C)OCCC2 (stereo not drawn) [CE, 6-Benzyloxy-7-methoxy-1-[(E)-2-(7-methylchroman-6-yl)vinyl]-1,2,3,4-tetrahydroisoquinoline] | 125 nM
COc1cc2c(cc1OCc1ccccc1)CCNC2/C=C/c1ccc(N2CCCCC2)cc1 (stereo not drawn) [EA, 6-Benzyloxy-7-methoxy-1-[(E)-2-[4-(1-piperidyl)phenyl]vinyl]-1,2,3,4-tetrahydroisoquinoline] | 2100 nM
COc1cc2c(cc1OCc1ccccc1)CCNC2/C=C/c1ccccc1N(C)C (stereo not drawn) [DC, (E)-2-(2-(6-(benzyloxy)-methoxy-1,2,3,4-tetrahydroisoquinolin-1-yl)vinyl)-N,N-dimethylamine] | 830 nM
COc1cc2c(cc1OCc1ccccc1)CCNC2/C=C/c1cc2ccccc2s1 (stereo not drawn) [DU, 1-[(E)-2-(1-Benzothiophen-2-yl)ethenyl]-6-(benzyloxy)-7-methoxy-1,2,3,4-tetrahydroisoquinoline] | 10100 nM
CCc1cc(OC)c(OCc2ccccc2)cc1/C=C/C1NCCc2cc(OCc3ccccc3)c(OC)cc21 (stereo not drawn) [Example AA, 6-benzyloxy-1-[(E)-2-(5-benzyloxy-2-ethyl-4-methoxy-phenyl)vinyl]-7-methoxy-1,2,3,4-tetrahydroisoquinoline] | 148 nM
CCOC(=O)c1coc(-c2cccc(/C=C/C3NCCc4cc(OCc5ccccc5)c(OC)cc43)c2)n1 (stereo not drawn) [EF, Ethyl 2-[3-[(E)-2-(6-benzyloxy-7-methoxy-1,2,3,4-tetrahydroisoquinolin-1-yl)vinyl]phenyl]oxazole-4-carboxylate] | 1000 nM
CCCCOc1cc(/C=C/C2NCCc3cc(OCc4ccccc4)c(OC)cc32)c(C)cc1OC (stereo not drawn) [BL, 6-Benzyloxy-1-[(E)-2-(5-butoxy-4-methoxy-2-methyl-phenyl)vinyl]-7-methoxy-1,2,3,4-tetrahydroisoquinoline] | 52 nM
COc1cc2c(cc1OCc1ccccc1)CCNC2/C=C/c1ccccc1NC(=O)OC(C)(C)C (stereo not drawn) [CW, tert-Butyl N-[2-[(E)-2-(6-benzyloxy-7-methoxy-1,2,3,4-tetrahydroisoquinolin-1-yl)vinyl]phenyl]carbamate] | 5400 nM
COc1cc2c(cc1OCc1ccccc1)CCNC2/C=C/c1ccc(OC)c2ccoc12 (stereo not drawn) [Example AO, 6-Benzyloxy-7-methoxy-1-[(E)-2-(4-methoxybenzofuran-7-yl)vinyl]-1,2,3,4-tetrahydroisoquinoline] | 1130 nM
COc1ccc(/C=C/C2NCCc3cc(OCc4ccccc4)c(OC)cc32)cn1 (stereo not drawn) [AX, 6-Benzyloxy-7-methoxy-1-[(E)-2-(6-methoxy-3-pyridyl)vinyl]-1,2,3,4-tetrahydroisoquinoline] | 3280 nM
COc1cc2c(cc1OCc1ccccc1)CCNC2/C=C/c1ccc(OC)c(C)c1C (stereo not drawn) [EL, 6-Benzyloxy-7-methoxy-1-[(E)-2-(4-methoxy-2,3-dimethyl-phenyl)vinyl]-1,2,3,4-tetrahydroisoquinoline] | 150 nM
COc1cc(C)c(/C=C/C2NCCc3cc(OCc4ccccc4)c(OC)cc32)cc1OCc1ccccc1 (stereo not drawn) [AF, 6-benzyloxy-1-[(E)-2-(5-benzyloxy-4-methoxy-2-methyl-phenyl)vinyl]-7-methoxy-1,2,3,4-tetrahydroisoquinoline] | 83 nM
COc1ccc(/C=C/C2NCCc3cc(OCc4ccccc4)c(OC)cc32)cc1F (stereo not drawn) [BF] | 1020 nM
COc1ccc(/C=C/C2NCCc3cc(OCc4ccccc4)c(OC)cc32)c(OC)n1 (stereo not drawn) [CA, 6-Benzyloxy-1-[(E)-2-(2,6-dimethoxy-3-pyridyl)vinyl]-7-methoxy-1,2,3,4-tetrahydroisoquinoline] | 640 nM
COc1ccc(/C=C/C2NCCc3cc(OCc4ccccc4)c(OC)cc32)cc1CN1CCCCC1 (stereo not drawn) [EM, 6-Benzyloxy-7-methoxy-1-[(E)-2-[4-methoxy-3-(1-piperidylmethyl)phenyl]vinyl]-1,2,3,4-tetrahydroisoquinoline] | 320 nM
COc1cc2c(cc1OCc1ccccc1)CCNC2/C=C/c1ccc(F)cc1C (stereo not drawn) [Example X, 6-benzyloxy-1-[(E)-2-(4-fluoro-2-methyl-phenyl)vinyl]-7-methoxy-1,2,3,4-tetrahydroisoquinoline] | 620 nM
COc1cc2c(cc1OCc1ccccc1)CCNC2/C=C/c1cc(C)c(OC)c(C(F)(F)F)c1 (stereo not drawn) [CZ, (E)-6-(benzyloxy)-7-methoxy-1-(4-methoxy-3-methyl-5-(trifluoromethyl)styryl)-1,2,3,4-tetrahydroisoquinoline] | 2190 nM
COc1ccc2cc(/C=C/C3NCCc4cc(OCc5ccccc5)c(OC)cc43)ccc2c1 (stereo not drawn) [DI, (E)-6-(benzyloxy)-7-methoxy-1-(2-(6-methoxynaphthalen-2-yl)vinyl)-1,2,3,4-tetrahydroisoquinoline] | 628 nM
COc1ccc(/C=C/C2NCCc3cc(OCc4ccccc4)c(OC)cc32)cc1COCC(F)(F)F (stereo not drawn) [EO, 6-Benzyloxy-7-methoxy-1-[(E)-2-[4-methoxy-3-(2,2,2-trifluoroethoxymethyl)phenyl]vinyl]-1,2,3,4-tetrahydroisoquinoline] | 504 nM
COc1cc2c(cc1OCc1ccccc1)CCNC2/C=C/c1ccc(-c2ccccn2)cc1 (stereo not drawn) [DZ, 6-Benzyloxy-7-methoxy-1-[(E)-2-[4-(2-pyridyl)phenyl]vinyl]-1,2,3,4-tetrahydroisoquinoline] | 650 nM
CCOC(=O)c1ccccc1/C=C/C1NCCc2cc(OCc3ccccc3)c(OC)cc21 (stereo not drawn) [ET, Ethyl 2-[(E)-2-(6-benzyloxy-7-methoxy-1,2,3,4-tetrahydroisoquinolin-1-yl)vinyl]benzoate] | 2480 nM
COc1cc(C)c(/C=C/C2c3cc(OC)c(OCc4ccccc4)cc3CCN2C(=O)OC(C)(C)C)cc1OCc1ccccc1 (stereo not drawn) [Example Y, tert-butyl 6-benzyloxy-1-[(E)-2-(5-benzyloxy-4-methoxy-2-methyl-phenyl)vinyl]-7-methoxy-3,4-dihydro-1H-isoquinoline-2-carboxylate] | 390 nM
COc1cc2c(cc1OCc1ccccc1)CCNC2/C=C/c1cc2c(cc1C)OCCO2 (stereo not drawn) [BC, 6-Benzyloxy-7-methoxy-1-[(E)-2-(7-methyl-2,3-dihydro-1,4-benzodioxin-6-yl)vinyl]-1,2,3,4-tetrahydroisoquinoline] | 27.1 nM

From patent publication US10195189B2, “2-phenethenyltetrahydro isoquinolines useful as anti-HIV compounds” (priority 2014, dated 2019)
